Test results taken from US9592226B2, “Solenopsin and derivatives, therapeutic compositions; and methods related thereto” (priority 2013, dated 2017).
“Also recorded” adds a separate entry of the source.

Experiments:
[1] = test system: A375 (human melanoma) cells; assay: Proliferation study, A375 cells (Coulter Counter); type: cell-based; conditions: 10 μM, 24 h, cell count vs DMSO
Procedure: 50,000 cells/well were plated and treated for 24 h with each compound. The first DMSO bar in each chart serves as control for (+)-solenopsin A, (−)-solenopsin A, and ceramide C2. The second DMSO bar is the control for S11-S15.
(§1) Different analogs of solenopsin were synthesized (FIG. 1) in order to explore their structure-activity relationships. The aliphatic side chains of S14 and S13 are 4 and 8 carbons longer compared to solenopsin, respectively. S11 has an 8-carbon longer side chain, as well as an extra methyl group in the 4-position of the piperidine ring. S15 has an 11-carbon side chain similar to solenopsin, but the first carbon in the side chain is hydroxylated. Also, S15 lacks the methyl group in the 2-position of the piperidine ring. All the analogs together with (−)- and (+)-solenosin A, and the isomeric mixture of the two cis-isomers of solenopsin (S12) were tested, at 10 μM, on two different human melanoma cell lines (A375 and A2058) and one murine angiosarcoma cell line (SVR) (FIG. 2). The A375 and A2058 melanoma cell lines express mutant Braf and the SVR murine angiosarcoma cell line expresses mutant Hras. One important difference between the two human melanoma cell lines is the A2058 is PTEN null, whereas A375 is not.
(§2) A375 (human melanoma), A2058 (human melanoma), or SVR (murine angiosarcoma) cells were plated at a concentration of 50,000 cells/well. The cells were treated with 10 μM of (−)-solenopsin A, (+)-solenopsin A, or analogs (S11-S15) for 24 hours, at which point cells were counted with a Coulter Counter.

[2] = test system: A2058 (human melanoma) cells; assay: Proliferation study, A2058 cells (Coulter Counter); type: cell-based; conditions: 10 μM, 24 h, cell count vs DMSO
Excerpt: as §1, §2

[3] = test system: SVR (murine angiosarcoma) cells; assay: Proliferation study, SVR cells (Coulter Counter); type: cell-based; conditions: 10 μM, 24 h, cell count vs DMSO
Excerpt: as §1, §2

p-Akt S473 = assay: Western blot p-Akt S473 in SVR cells; type: cell-based, murine; conditions: 10 μM (ceramide C2 20 μM), 24 h
Procedure: (§3) A375, SVR, and A2058 cells were treated for 24 h with ceramide C2 (20 μM), (+)-solenopsin A ((+) Sol. A, 10 μM), (−)-solenopsin A ((−) Sol. A, 10 μM), or solenopsin analogs S11-S15 (10 μM). The expression of p-AKT S473, p-pMAPK 44/42, and B-actin was determined by western blotting.
(§4) A375, SVR, and A2058 cells treated with solenopsin A and analogs were evaluated by Western-blotting with pAkt S473, p-pMAPK 44/42, and β-actin (FIG. 5). Although the proliferation results were more or less similar in all three cell lines, the protein expressions varied. In A375's an up-regulation of pAkt S473 and p-pMAPK 44/42 could be seen for (+)- and (−)-solenopsin A, as well as for analogs S12-S15 (FIG. 5). […] The results for cell line A2058 is similar to A375, i.e. there is an up-regulation of p-Akt S473 and p-pMAPK 44/42 in the treatment groups compared to the control. […] Both human melanoma cell lines (A375 and A2058) are reactive oxygen driven tumors, whereas the murine angiosarcoma cell line (SVR) is not. […]
(§5) Cells were grown in T-25 flasks until 80% confluent followed by treatment for 24 h with 10 μM DMSO solutions of (+)-solenopsin A, (−)-solenopsin A, or analogs (S11-S15). Sample aliquots normalized for protein quantities were size fractionated by 10% SDS-PAGE, and the proteins were transferred to a PVDF membrane. […]

p-pMAPK 44/42 = assay: Western blot p-pMAPK 44/42 in SVR cells; type: cell-based, murine; conditions: 10 μM (ceramide C2 20 μM), 24 h
Procedure: as §3, §4, §5

UM-SCC1A cells = assay: Oxygen consumption rate (Seahorse) in UM-SCC1A cells; type: cell-based, human; conditions: 10 μM, 24 h
Procedure: UM-SCC1A cells were plated 15,000/well and treated for 24 h with 10 μM of (+)-solenopsin A ((+) Sol. A), (−)-solenopsin A ((−) Sol. A), and solenopsin analogs S11-S15. Oxygen consumption rate (OCR) was measured as pmoles O2/minute using a Seahorse Biosciences instrument. Data shown are an average of three experiments±s.d.
At least not in Braf mutated cell lines, such as A375 and A2058. One possibility is that solenopsin, like ceramide, may also localize to mitochondria, and cause mitochondrial induced cell death. Cellular oxygen consumption rate can be indicative of mitochondrial function. Therefore, to investigate if solenopsin A and analogs do alter mitochondrial function, UM-SCC1A (human head and neck SCC) cells were then treated with 10 μM compound or the equivalent amount of DMSO and incubated for 24 hours. A SeaHorse Bioscience instrument was used to measure the oxygen consumption rate (OCR). […] Mitophagy can be one reason for decreased OCR, but further assays are needed to confirm the cause for the observed differences.
UM-SCC1A cells were plated 15,000 per well in 200 μl DMEM supplemented with 10% FBS and 1% penicillin-streptomycin in each well of a 96-well Seahorse plate and incubated overnight at 37° C. with 5% CO2. Cells were then treated with 10 μM compound or the equivalent amount of DMSO and incubated for 24 hours. OCR was measured as pmoles O2/minute using the Seahorse Biociences instrument per manufacturer's instructions. Protein amounts in each well were then quantified using the Thermo Scientific Pierce Protein Assay, per manufacturer's instructions.

PTEN = assay: Lipid raft fractionation (sucrose density gradient), PTEN translocation to membrane rafts in A375 cells; type: cell-based, human; conditions: 50 μM (positive control), 1 h
Procedure: A375 cells were treated for 1 h with: ceramide C2 (50 μM), (+)-solenopsin A ((+) Sol. A, 20 μM), (−)-solenopsin A ((−) Sol. A, 20 μM), or solenopsin analogs S11-S15 (20 μM). Cells were lysed in 0.5% Brij96 in TNEV, loaded onto the 5-40% sucrose gradient, and centrifuged at 34,000 rpm at 4° C. for 22 h. Thirteen fractions were collected, starting from the top of the tube. Equal volumes of each fraction were analyzed by Western blotting with caveolin and PTEN antibodies. Caveolin serves a positive control for which fractions that contain lipid rafts.
Caveolin was used as a positive marker to identify lipid raft fractions and an anti-PTEN antibody was used to identify PTEN-containing fractions (FIG. 3). A375 cells were treated for 1 h with 20 μM of (+)-solenopsin, (−)-solenopsin, or analogs S11-S15. […]
Cells were grown in T-75 flasks until 80% confluent followed by treatment for 1 h with 20 μM DMSO solutions of (+)-solenopsin A, (−)-solenopsin A, analogs (S12-S15), or 50 μM of ceramide C2 in DMSO. […] Equal volumes of each fraction were analyzed by Western blot with relevant antibodies.
as §5

[4] = target: neuronal nitric oxide synthase (Homo sapiens, UniProt P29475); conditions: Yi et al., Int J Toxicol 2003; cited from earlier work
neuronal nitric oxide synthase, sequence (P29475 whole entry): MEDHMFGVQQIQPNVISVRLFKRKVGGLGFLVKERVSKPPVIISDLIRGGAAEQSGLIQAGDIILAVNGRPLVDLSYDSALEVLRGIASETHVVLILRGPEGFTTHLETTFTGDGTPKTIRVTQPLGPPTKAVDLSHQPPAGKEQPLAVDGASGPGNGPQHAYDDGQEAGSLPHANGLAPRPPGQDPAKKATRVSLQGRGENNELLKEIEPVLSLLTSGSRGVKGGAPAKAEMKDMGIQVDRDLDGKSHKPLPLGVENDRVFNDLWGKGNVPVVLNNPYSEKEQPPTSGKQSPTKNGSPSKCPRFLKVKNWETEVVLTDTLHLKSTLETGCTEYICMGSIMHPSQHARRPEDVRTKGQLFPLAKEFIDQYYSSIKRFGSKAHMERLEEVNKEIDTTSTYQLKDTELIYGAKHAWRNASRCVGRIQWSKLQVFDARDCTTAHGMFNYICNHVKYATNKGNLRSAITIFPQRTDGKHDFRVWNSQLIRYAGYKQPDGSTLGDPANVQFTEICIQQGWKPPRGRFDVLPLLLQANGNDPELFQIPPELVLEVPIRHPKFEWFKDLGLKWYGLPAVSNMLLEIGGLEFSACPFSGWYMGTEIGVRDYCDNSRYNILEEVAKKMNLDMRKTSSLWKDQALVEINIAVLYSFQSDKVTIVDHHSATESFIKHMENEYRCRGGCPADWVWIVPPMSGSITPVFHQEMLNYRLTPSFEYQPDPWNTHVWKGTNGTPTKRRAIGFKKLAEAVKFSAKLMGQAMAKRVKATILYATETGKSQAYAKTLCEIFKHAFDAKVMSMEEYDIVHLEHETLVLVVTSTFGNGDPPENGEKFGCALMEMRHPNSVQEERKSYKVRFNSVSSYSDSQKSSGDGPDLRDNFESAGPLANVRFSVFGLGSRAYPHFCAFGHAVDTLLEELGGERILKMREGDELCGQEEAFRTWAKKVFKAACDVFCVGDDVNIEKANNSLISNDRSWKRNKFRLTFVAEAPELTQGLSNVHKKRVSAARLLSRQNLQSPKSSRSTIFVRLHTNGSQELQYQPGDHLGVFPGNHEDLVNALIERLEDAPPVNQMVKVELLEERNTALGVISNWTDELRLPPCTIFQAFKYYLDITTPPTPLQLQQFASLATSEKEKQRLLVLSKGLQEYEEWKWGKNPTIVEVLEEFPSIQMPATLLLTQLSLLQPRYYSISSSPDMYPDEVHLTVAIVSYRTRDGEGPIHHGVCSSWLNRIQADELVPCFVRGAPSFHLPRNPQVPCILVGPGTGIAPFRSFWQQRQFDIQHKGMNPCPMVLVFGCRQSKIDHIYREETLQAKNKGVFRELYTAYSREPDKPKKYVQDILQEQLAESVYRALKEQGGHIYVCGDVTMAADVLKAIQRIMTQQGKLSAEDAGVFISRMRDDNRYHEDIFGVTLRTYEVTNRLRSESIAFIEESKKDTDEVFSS

A375 cells = assay: Superoxide (ROS) by DHE fluorescence, A375 cells; type: cell-based, human; conditions: 10 μM, 24 h
Procedure: Cells were treated for 24 h with 10 μM of (+)-solenopsin A ((+) Sol. A), (−)-solenopsin A ((−) Sol. A), and solenopsin analogs S11-S15. Cells were trypsined and incubated for 10 min in 10 μM dihydroethedium (DHE), followed by analysis with a FACScan flow cytometer. Data shown are an average of three experiments±s.d.
A375 or SVR cells were plated in 6 cm dishes. After cells had adhered to the plates, they were treated for 24 h with 10 μM DMSO solutions of (+)-solenopsin A, (−)-solenopsin A, or analogs (S11-S15) at which time the media was aspirated. Cells were washed with 2 mL PBS then treated with 0.05% trypsin/0.53 mM EDTA (Fisher) for 3 min at RT. Cells were collected and then pelleted at 600 g for 2 min. The supernatant was aspirated and the cells were suspended in 10 uM dihydroethidium (DHE) (Life Technologies) and incubated for 10 min in the dark at RT while shaking Following this incubation, cells were kept until counting on a Becton Dickinson FACScan flow cytometer. 10,000 cells were counted and analyzed by FlowJo 7.6.4. Mean values of DHE fluorescence intensity were compared.

Pseudomonas aeruginosa = conditions: Park et al. 2008; cited from earlier work
phosphoinositol-3 kinase = conditions: p53 deficient renal cell carcinoma cell line 786-O; Arbiser et al. 2007; cited from earlier work
angiogenesis = conditions: Arbiser et al., Blood 2007; cited from earlier work

CCCCCCCCCCCCCCCC1CCCC(C)N1 (centres unmarked) [Compound S14, 2-Methyl-6-pentadecylpiperidine]
antiproliferative effect [1]: equally as effective as solenopsin A; also recorded: most potent analog
antiproliferative effect [2]: equally as effective as solenopsin A; also recorded: approximately equally as potent as (−)- and (+)-solenopsin A
antiproliferative effect [3]: equally as effective as solenopsin A; also recorded: most potent analog
expression of p-Akt S473 (p-Akt S473): down-regulated
expression of p-pMAPK 44/42 (p-pMAPK 44/42): down-regulated
oxygen consumption rate (OCR) compared to DMSO control (UM-SCC1A cells): drastically reduced OCR

Ceramide
amount of PTEN in the lipid raft fractions (PTEN): higher amount of PTEN in the lipid raft fractions

CCCCCCCCCCC(O)C1CCCCN1 (centres unmarked) [Compound S15, 1-(Piperidin-2-yl)undecan-1-ol]
antiproliferative effect [1]: equally as effective as solenopsin A; also recorded: potent antiproliferative effect
antiproliferative effect [2]: equally as effective as solenopsin A; also recorded: potent antiproliferative effect; also recorded: most potent analog
antiproliferative effect [3]: equally as effective as solenopsin A; also recorded: potent antiproliferative effect
expression of p-Akt S473 (p-Akt S473): down-regulated
expression of p-pMAPK 44/42 (p-pMAPK 44/42): down-regulated
oxygen consumption rate (OCR) compared to DMSO control (UM-SCC1A cells): drastically reduced OCR

CCCCCCCCCCCC1CCCC(C)N1 (centres unmarked) [isosolenopsin A, 2-methyl-6-nundecylpiperidine]
inhibition of neuronal nitric oxide synthase [4]: potent and selective inhibitor

CCCCCCCCCCCC1CCCC(C)N1 (centres unmarked) [Compound S12, 2-Methyl-6-undecylpiperidine]
antiproliferative effect [1]: anti-proliferative properties, although not as potent as solenopsin A itself; also recorded: clearly weaker than for the (−)- and (+)-solenopsin A
antiproliferative effect [2]: anti-proliferative properties, although not as potent as solenopsin A itself; also recorded: clearly weaker than for the (−)- and (+)-solenopsin A
antiproliferative effect [3]: anti-proliferative properties, although not as potent as solenopsin A itself; also recorded: clearly weaker than for the (−)- and (+)-solenopsin A
oxygen consumption rate (OCR) compared to DMSO control (UM-SCC1A cells): drastically reduced OCR

CCCCCCCCCCCCCCCCCCCC1CC(C)CC(C)N1 (centres unmarked) [Compound S11, 2,4-Dimethyl-6-nonadecylpiperidine]
antiproliferative effect [1]: no significant antiproliferative effect
antiproliferative effect [2]: no significant antiproliferative effect
antiproliferative effect [3]: no significant antiproliferative effect
oxygen consumption rate (OCR) compared to DMSO control (UM-SCC1A cells): little change compared to the control
effect on superoxide levels (DHE fluorescence) (A375 cells): no effect on superoxide levels

CCCCCCCCCCCC1CCCC(C)N1 (centres unmarked) [Solenopsin, 2-methyl-6-nundecylpiperidine]
quorum sensing in Pseudomonas aeruginosa (Pseudomonas aeruginosa): blocks quorum sensing
phosphoinositol-3 kinase (phosphoinositol-3 kinase): downregulated phosphoinositol-3 kinase
anti-angiogenic activity (angiogenesis): anti-angiogenic activity
